Counter-ions that a name gives are not always drawn.
Key:
mexB (PA) strain = assay: Combinational effect with antibacterial agent against Pseudomonas aeruginosa (Test Examples 2 and 4): mexB (PA) strain with LVFX, TC or AZT at 1/4 MIC, EC99; format: cell-based; settings: for EC99, combinational effect with AZT, mexB (PA) / EC99, combinational effect with LVFX, mexB (PA) / EC99, combinational effect with TC, mexB (PA): mexB (PA) strain, Test Example 4
How it was run: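 EC99 denotes the minimum test-compound concentration (range 0–800 μM) that suppresses ≥99% of growth, measured by OD595, when combined with ¼ MIC levofloxacin (LVFX), tetracycline or aztreonam. The efflux-pump mutant mexB (PA), expressing mainly MexAB-OprM, was inoculated at 10^4–5 CFU/well in CAMHB for 16–20 h.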

S-3769 strain = assay: Combinational effect with antibacterial agent against Pseudomonas aeruginosa (Test Examples 2 and 4): S-3769 strain with AMK or GM at 1/4 MIC, EC99; format: cell-based; settings: for EC99, combinational effect with AMK, S-3769 strain / EC99, combinational effect with GM, S-3769 strain: Test Example 4
How it was run: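 EC99, the lowest test-compound concentration inhibiting growth by ≥99% (OD595), was measured with aminoglycoside AMK or GM held at ¼ MIC. Strain S-3769, a MexY-overexpressing clinical isolate, was cultured in CAMHB at 10^4 to 5 CFU/well for 16–20 h; compound range 0–800 μM.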

mexY (EC) strain = assay: Efflux ability inhibition effect on drug efflux pump MexY (Test Examples 1 and 3): proliferation (OD595) of mexY (EC) strain with EM or LVFX at 1/4 MIC, EC75; format: cell-based, Escherichia coli; settings: for EC75, mexY (EC) strain, EM: combined with EM at 1/4 MIC; for EC75, mexY (EC) strain, LVFX: combined with LVFX at 1/4 MIC
Method: The efflux ability inhibition effect of the test compound on the drug efflux pump was evaluated using the bacterial proliferative ability in the presence of EM or LVFX as an index.
EM is a macrolide antibacterial agent and is a drug that is discharged outside the bacteria by MexB and MexY LVFX is a quinolone antibacterial agent and is a drug that is discharged outside the bacteria by MexB and MexY In a case where the test compound has an efflux ability inhibitory ability against the drug efflux pump, the proliferation of bacteria is suppressed by the combined use of EM or LVFX and the test compound, as compared with the case where EM or LVFX is used alone.
A mutant strain (hereinafter, referred to as an “mexB (EC) strain”) obtained by transferring the genes of the main multidrug efflux system MexAB-OprM of Pseudomonas aeruginosa described in Nature, 2013, Vol. 500, pp. 102 to 106 as a plasmid into Escherichia coli strains in which the acrB and tolC genes of the multidrug efflux system AcrAB-TolC were deleted as described in Journal of Infection and Chemotherapy 2008, Vol. 14, pp. 23 to 29, and a gene transfer strain (hereinafter, referred to as an “mexY (EC) strain”) of another main multidrug efflux system MexXY-OprM of Pseudomonas aeruginosa were used for the evaluation of test compounds.
In the mexB (EC) strain, an expression level of MexB of the drug efflux pump is accelerated, and in the mexY (EC) strain, an expression level of MexY of the drug efflux pump is accelerated.
For culturing each Escherichia coli strain, a 96-well plate (amount of culture medium per well: 100 μL) was used and Luria-Bertani broth (LB) culture medium was used. The inoculation amount of the bacteria was set to 10^4 to 5 CFU/well.
The mexB (EC) strain and the mexY (EC) strain were cultured for 16 to 20 hours in a culture medium to which EM or LVFX and test compounds at various concentrations (0 to 800 μM) were added, and the proliferation of the bacterial strains was evaluated by optical turbidity at 595 nm (OD595). The concentration of the antibacterial agents (EM and LVFX) in the culture medium were each set to ¼ of the minimum inhibitory concentration (MIC) (hereinafter, referred to as ¼ MIC) of the single antibacterial agent.
The proliferation of bacteria in a case where the antibacterial agent was added at the concentration of ¼ MIC in a case where the test compound was not added was measured, and compared with the proliferation of bacteria in a case where the test compound was contained, and the lowest concentration of the test compound at which the proliferation was inhibited by 75% or more was defined as the drug efflux pump inhibitory ability of the test compound as 75% inhibitory effect concentration (EC75).
The drug efflux pump inhibitory ability of each test compound in a case of being used in combination with the antibacterial agent against the mexB (EC) strain and the mexY (EC) strain was evaluated as follows according to the value of EC75. • S: EC75≤[…] • A: 12.5 μM<EC75≤25 μM • B: 25 μM<EC75≤100 μM • C: […]
In the same manner as in Test Example 1, the efflux ability inhibition effect of the test compound on the drug efflux pump was evaluated using the bacterial proliferation ability in the presence of EM or LVFX as an index.

[1] = Table 51, Test Example 1, 16 to 20 hours culture, OD595
[2] = Table 53, Test Example 3, same manner as Test Example 1

In the case of CCOc1cccc(F)c1CN1CCN(C(=O)CN2CCC(C(N)Cc3ccccc3)CC2)CC1 (centres unmarked) [Example 423, hydrochloride of 2-(4-(1-amino-2-phenylethyl)piperidin-1-yl)-1-(4-(2-ethoxy-6-fluorobenzyl)piperazin-1-yl)ethan-1-one], the “EC99, mexB (PA), AZT” value (mexB (PA) strain; Table 52, Test Example 2, combined with AZT at 1/4 MIC, 16 to 20 hours culture, OD595) is reported as “C (100 μM<EC99)”, the “EC99, mexB (PA), LVFX” value (mexB (PA) strain; Table 52, Test Example 2, combined with LVFX at 1/4 MIC, 16 to 20 hours culture, OD595) is reported as “C (100 μM<EC99)” and the “EC99, mexB (PA), TC” value (mexB (PA) strain; Table 52, Test Example 2, combined with TC at 1/4 MIC, 16 to 20 hours culture, OD595) is reported as “B (25 μM<EC99≤100 μM)”. The “EC99, S-3769 strain, AMK” value (S-3769 strain; Table 52, Test Example 2, combined with AMK at 1/4 MIC, 16 to 20 hours culture, OD595) was “C (100 μM<EC99)”, the “EC99, S-3769 strain, GM” value (S-3769 strain; Table 52, Test Example 2, combined with GM at 1/4 MIC, 16 to 20 hours culture, OD595) was “C (100 μM<EC99)” and the “EC75, mexY (EC) strain, EM” value (mexY (EC) strain; [1]) was “B (25 μM<EC75≤100 μM)”. The “EC75, mexY (EC) strain, LVFX” value (mexY (EC) strain; [1]) was “A (12.5 μM<EC75≤25 μM)”.
In the case of CCOc1cccc(F)c1CN1CCN(C(=O)[C@H](N)C2CCN(CCc3cc(Cl)ccc3-c3ccnn3C)CC2)CC1 [Example 503, Hydrobromide of (R)-2-amino-2-(1-(5-chloro-2-(1-methyl-1H-pyrazol-5-yl)phenethyl)piperidin-4-yl)-1-(4-(2-ethoxy-6-fluorobenzyl)piperazin-1-yl)ethan-1-one], the “EC99, combinational effect with AZT, mexB (PA)” value (from here on “EC99 … with AZT, mexB (PA)”) (mexB (PA) strain; combined with AZT at 1/4 MIC) is reported as “C (100 μM<EC99)”, the “EC99, combinational effect with LVFX, mexB (PA)” value (shortened to “EC99 … with LVFX, mexB (PA)”) (mexB (PA) strain; combined with LVFX at 1/4 MIC) is reported as “C (100 μM<EC99)” and the “EC99, combinational effect with TC, mexB (PA)” value (“EC99 … with TC, mexB (PA)” for short) (mexB (PA) strain; combined with TC at 1/4 MIC) is reported as “C (100 μM<EC99)”. For the same molecule, the “EC99, combinational effect with AMK, S-3769 strain” value (from here on “EC99, combinational effect with AMK”) (S-3769 strain; combined with AMK at 1/4 MIC) was “B (25 μM<EC99≤100 μM)”, the “EC99, combinational effect with GM, S-3769 strain” value (from here on “EC99, combinational effect with GM”) (S-3769 strain; combined with GM at 1/4 MIC) was “B (25 μM<EC99≤100 μM)” and the “EC75, mexY (EC) strain, EM” value (mexY (EC) strain; [2]) was “A (12.5 μM<EC75≤25 μM)”.
For N[C@@H](C(=O)N1CCN(Cc2nccc3c2OCCO3)CC1)C1CCN(CCc2cc(Cl)ccc2-c2ccccc2)CC1 [Example 520, Hydrobromide of (R)-2-amino-2-(1-(2-(4-chloro-[1,1-biphenyl]-2-yl)ethyl)piperidin-4-yl)-1-(4-((2,3-dihydro-[1,4]dioxino[2,3-c]pyridin-5-yl)methyl)piperazin-1-yl)ethan-1-one], the “EC99 … with AZT, mexB (PA)” value (mexB (PA) strain; combined with AZT at 1/4 MIC) was “C (100 μM<EC99)”, the “EC99 … with LVFX, mexB (PA)” value (mexB (PA) strain; combined with LVFX at 1/4 MIC) was “C (100 μM<EC99)” and the “EC99 … with TC, mexB (PA)” value (mexB (PA) strain; combined with TC at 1/4 MIC) was “C (100 μM<EC99)”. The “EC99, combinational effect with AMK” value (S-3769 strain; combined with AMK at 1/4 MIC) was “B (25 μM<EC99≤100 μM)”, the “EC99, combinational effect with GM” value (S-3769 strain; combined with GM at 1/4 MIC) was “C (100 μM<EC99)” and the “EC75, mexY (EC) strain, EM” value (mexY (EC) strain; [2]) was “A (12.5 μM<EC75≤25 μM)”. The “EC75, mexY (EC) strain, LVFX” value (mexY (EC) strain; [2]) was “A (12.5 μM<EC75≤25 μM)”.
CSc1ccc(CN2CCN(C(=O)[C@H](N)C3CCN(CCc4cc(Cl)ccc4-c4ccccc4)CC3)CC2)s1 [Example 523, Hydrobromide of (R)-2-amino-2-(1-(2-(4-chloro-[1,1-biphenyl]-2-yl)ethyl)piperidin-4-yl)-1-(4-((5-(methylthio)thiophen-2-yl)methyl)piperazin-1-yl)ethan-1-one] was tested, and the “EC99 … with AZT, mexB (PA)” value (mexB (PA) strain; combined with AZT at 1/4 MIC) was “B (25 μM<EC99≤100 μM)”, the “EC99 … with LVFX, mexB (PA)” value (mexB (PA) strain; combined with LVFX at 1/4 MIC) was “B (25 μM<EC99≤100 μM)” and the “EC99 … with TC, mexB (PA)” value (mexB (PA) strain; combined with TC at 1/4 MIC) was “B (25 μM<EC99≤100 μM)”. For the same molecule, the “EC99, combinational effect with AMK” value (S-3769 strain; combined with AMK at 1/4 MIC) was “B (25 μM<EC99≤100 μM)”, the “EC99, combinational effect with GM” value (S-3769 strain; combined with GM at 1/4 MIC) was “B (25 μM<EC99≤100 μM)” and the “EC75, mexY (EC) strain, LVFX” value (mexY (EC) strain; [2]) was “A (12.5 μM<EC75≤25 μM)”.

Source: patent US20250326744A1, “PIPERAZINE DERIVATIVE OR SALT THEREOF, AND PHARMACEUTICAL COMPOSITION” (priority 2022, published 2025)
